Laboratory results taken from US20220265629A1, “TREATMENT OF SYSTOLIC DYSFUNCTION AND HEART FAILURE WITH REDUCED EJECTION FRACTION WITH THE COMPOUND (R)-4-(1-((3-(DIFLUOROMETHYL)-1-METHYL-1H-PYRAZOL-4-YL)SULFONYL)-1-FLUOROETHYL)-N-(ISOXAZOL-3-YL)PIPERIDINE-1-CARBOXAMIDE” (MyoKardia, Inc., priority 2019, published 2022).
Like-named read-outs stand apart in the source and are kept apart here.

Experiment: HFrEF study Part 1 (SAD Cohorts 1 and 2): plasma pharmacokinetics
Type: in vivo, human
Conditions: for Cmax / Tmax / AUC(0-t) / AUC(0-inf) / half-life: human, plasma, oral; for AUC(0-t): read-out: AUC0-24; for Plasma concentration, Mean / Plasma concentration, Median: pooled SAD Cohorts 1 and 2
Text: Part 1 was a randomized, crossover, DB, placebo-controlled, two-cohort, sequential ascending (oral) single-close study in ambulatory patients with heart failure. All patients received placebo and 2 or 3 active doses of Compound I. Each patient underwent sequential, single-close treatment events separated by no fewer than 5 days and no more than 14 days. Patients in Cohort 1 may also return for a fourth dosing period (open label) after the SRC reviews available data and recommends the close. Patients enrolled prior to the implementation of Amendment 1 may be offered the opportunity to return for the open-label period. Patients in Cohort 2 participated in 2 to 4 dosing periods, based on SRC decision. Patients were randomized to one of the different dosing sequences outlined in FIG. 5A. Multiple patients could be closed at the same time or during the same week depending on administrative issues, i.e., capacity and scheduling.
For each dosing period, patients were admitted to the clinical site on Day −1. Patients were assessed for absence of exclusion criteria (e.g., new lab abnormalities and/or conditions that indicate the patient is clinically unstable). They received Compound I or placebo in the morning of Day 1 followed by serial PK and PD assessments, as well as serial safety assessments. Patients were discharged on Day 3 (i.e., ˜48 hours following Day 1 dosing). An additional outpatient plasma PK sample was taken on the morning of Day 4 at 72 hours postclose.
Study medication consisted of Compound I 5 mg tablets, 25 mg tablets, 100 mg tablets, or matching placebo tablets. In Part 1 (SAD), Compound I or placebo was administered after an overnight fast (at least 6 hours), while in Part 2 (MAD), Compound I was administered after a 2 hour fast (Cohort A) or with food (Cohorts B, C, and D). The close was ingested with a minimum of 240 mL of water, but more water was ingested as needed. The entire close was administered over a period of up to 15 minutes. The time of close used to determine future assessments was the time the last tablet was taken. In the cohorts for Part 2 (MAD), a BID regimen was used.
In Part 1 (SAD), patients fasted overnight (approximately 6 hours) through 4 hours postclose. With the exception of the water consumed with the close, water could be ingested until approximately 1 hour prior to dosing and approximately 1 hour after dosing. If closes were split, subjects fasted 6 hours prior to the first half-close. A light, low-fat snack could be consumed 2 hours after the first half-close and a fast continued through 2 hours after the second half-close.
Eight patients with stable heart failure were enrolled and randomized to receive Compound I or placebo at a dose of 175, 350, 525, 450 (split close), or 550 mg (split close) in a crossover study design with four periods (A-D). All patients had heart failure with a nonischemic etiology and a mean Baseline ejection fraction of 43%. All eight subjects received placebo, 175 mg, and 350 mg (in random sequence) during Periods A to C. Six subjects elected to continue into a fourth open-label Period D, and closes received included: 350 mg (n=1), 525 mg (n=2), 450 mg (divided into 2 aliquots; n=1) and 550 mg (divided into 2 aliquots, n=2). The single doses were administered to patients under fasted conditions. The split closes were given four hours apart with patients fasting six hours prior to the first half-close and 2 hours after the second half-close, with a light snack allowed 2 hours after the first half-close. Subsequently, patients underwent extended observation, followed by a washout period. This process was repeated until each patient had received at least three closes (Compound I or placebo).
Four subjects with stable heart failure were enrolled and randomized to receive Compound I or placebo at a dose of 400 mg (split close) or 500 mg (split close) over three periods (A-C). […]

[1] = 175 mg, SAD Cohort 1, 175 mg (n = 8)
[2] = 350 mg, SAD Cohort 1, 350 mg (n = 8)
[3] = 350 mg, SAD Cohort 1, 4th dose 350 mg (n = 1)
[4] = 400 mg, SAD Cohort 2, 400 mg split dose (n = 4)
[5] = 450 mg, SAD Cohort 1, Split dose 450 mg (n = 1)
[6] = 500 mg, SAD Cohort 2, 500 mg split dose (n = 4)
[7] = 525 mg, SAD Cohort 1, 525 mg (n = 2)
[8] = 550 mg, SAD Cohort 1, Split dose 550 mg (n = 2)

Cn1cc(S(=O)(=O)[C@@](C)(F)C2CCN(C(=O)Nc3ccon3)CC2)c(C(F)F)n1 [Compound I, (R)-4-(1-((3-(difluoromethyl)-1-methyl-1H-pyrazol-4-yl)sulfonyl)-1-fluoroethyl)-N-(isoxazol-3-yl)piperidine-1-carboxamide]
AUC0-∞ (SAD Cohort 1, 175 mg (n = 8)): 53,800 h × ng/mL | AUC0-∞ (SAD Cohort 1, 350 mg (n = 8)): 103,000 h × ng/mL | AUC0-∞ (SAD Cohort 1, 525 mg (n = 2)): 127,000 h × ng/mL | Cmax (175 mg, 175 mg single dose, read-out: Cmax, mean (SD)): 1510 ng/mL | Tmax [1]: 4.93 h | AUC(0-t) [1]: 27 µg·h/mL | Cmax (175 mg, SAD Cohort 1, 175 mg (n = 8), read-out: Cmax): 1510 ng/mL | Cmax (350 mg, 350 mg single dose, read-out: Cmax, mean (SD)): 2760 ng/mL | Tmax [2]: 6.15 h | AUC(0-t) [2]: 50.5 µg·h/mL | Cmax (350 mg, SAD Cohort 1, 350 mg (n = 8), read-out: Cmax): 2760 ng/mL | Tmax [3]: 4.05 h | AUC(0-t) [3]: 70.1 µg·h/mL | Cmax (350 mg, SAD Cohort 1, 4th dose 350 mg (n = 1), read-out: Cmax): 3590 ng/mL | Tmax [4]: 9 h | AUC(0-t) [4]: 162 µg·h/mL | Cmax (400 mg, SAD Cohort 2, 400 mg split dose (n = 4), read-out: Cmax): 5460 ng/mL | Tmax [5]: 12 h | AUC(0-t) [5]: 79.2 µg·h/mL | Cmax (450 mg, SAD Cohort 1, Split dose 450 mg (n = 1), read-out: Cmax): 4420 ng/mL | Tmax [6]: 8.5 h | AUC(0-t) [6]: 191 µg·h/mL | Cmax (500 mg, SAD Cohort 2, 500 mg split dose (n = 4), read-out: Cmax): 5880 ng/mL | Cmax (525 mg, 525 mg single dose, read-out: Cmax, mean (SD)): 2720 ng/mL | Tmax [7]: 5.74 h | AUC(0-t) [7]: 54 µg·h/mL | Cmax (525 mg, SAD Cohort 1, 525 mg (n = 2), read-out: Cmax): 2720 ng/mL | Tmax [8]: 8.93 h | AUC(0-t) [8]: 97.9 µg·h/mL | Cmax (550 mg, SAD Cohort 1, Split dose 550 mg (n = 2), read-out: Cmax): 5280 ng/mL | AUC(0-inf) (175 mg single dose, read-out: AUC0-∞, mean (SD)): 53.8 µg·h/mL | AUC(0-inf) (350 mg single dose, read-out: AUC0-∞, mean (SD)): 103 µg·h/mL | AUC(0-inf) (525 mg single dose, read-out: AUC0-∞, mean (SD)): 127 µg·h/mL | half-life (HFrEF patients (Cohort 1), read-out: half-life): 20 to 25 h | half-life (SAD Cohort 1, 175 mg (n = 8), read-out: t½ (converted)): 22 h | half-life (SAD Cohort 1, 350 mg (n = 8), read-out: t½ (converted)): 21 h | half-life (SAD Cohort 1, 525 mg (n = 2), read-out: t½ (converted)): 24.7 h | AUC(0-inf) (SAD Cohort 1, Split dose 450 mg (n = 1), read-out: AUC0-∞): 235 µg·h/mL | half-life (SAD Cohort 1, Split dose 450 mg (n = 1), read-out: t½ (converted)): 30.6 h | AUC(0-inf) (SAD Cohort 1, Split dose 550 mg (n = 2), read-out: AUC0-∞): 213 µg·h/mL | half-life (SAD Cohort 1, Split dose 550 mg (n = 2), read-out: t½ (converted)): 21.5 h | AUC(0-inf) (SAD Cohort 2, 400 mg split dose (n = 4), read-out: AUC0-∞): 192 µg·h/mL | half-life (SAD Cohort 2, 400 mg split dose (n = 4), read-out: t½ (converted)): 24.1 h | AUC(0-inf) (SAD Cohort 2, 500 mg split dose (n = 4), read-out: AUC0-∞): 231 µg·h/mL | half-life (SAD Cohort 2, 500 mg split dose (n = 4), read-out: t½ (converted)): 24 h | Plasma concentration, Mean (group <2000 ng/mL): 1390 ng/mL | Plasma concentration, Median (group <2000 ng/mL): 1307 ng/mL | Plasma concentration, Mean (group ≥2000 ng/mL): 3823 ng/mL | Plasma concentration, Median (group ≥2000 ng/mL): 3795 ng/mL
